In patent publication US20130338216A1, “DEUTERATED AND/OR FLUORINATED TAXANE DERIVATIVES” (NEKTAR THERAPEUTICS, priority 2010, published 2013):
One block for each compound: values may come before it.

Legend:
[1] = In vitro metabolic stability in human liver microsomes; type: in vitro ADME; conditions: both sexes, pH 7.4; human liver microsomes 0.5 mg/mL, 1 μM test article, up to 30 minutes, 37° C.; read-out: intrinsic clearance rate
Experimental: (§1) Methods: Previously frozen human liver microsomes (mixed gender pool; Xenotech H0630) were thawed in a 37° C. water bath and put on ice immediately after thawing. […] The incubation mixture (500 μL) was prepared in individual silanized tube (CTS-13100) for each time point and for each test article. Incubation was terminated by adding 500 μL cold water:acetonitrile 1:1 (v/v) spiked with 400 nM paclitaxel (internal standard) to the tube. […] The slope of the linear regression from log percentage remaining versus incubation time relationships (−k) was used in the calculation of intrinsic clearance: Intrinsic clearance (CLint)=k*(μL incubation/mg of microsomal protein).

boiled liver microsomes = experiment: Stability in boiled liver microsomes (control incubation); type: in vitro ADME
Experimental: as §1

[2] = tested on: cytochrome P450 CYP3A4 and CYP3A5; conditions: by cytochrome P450 CYP3A4 and CYP3A5 isoenzymes; cited from earlier work
A549 cell line = experiment: In vitro cytotoxicity, CellTiter-Glo cell viability, A549; type: cell-based; conditions: Homo sapiens, 72 hours of exposure
Experimental: (§2) Experimental Procedure: NCI-H460, A549, and MDA-MB-231 cell lines were obtained from ATCC and cultured in RPMI-1640 medium supplemented with 2 mM L-glutamine dipeptide and 10% fetal bovine serum (FBS). For assays, cells were seeded in 96-well plates at 5,000 cells per well in RMPI-1640 medium supplemented with 2 mM L-glutamine dipeptide and 10% FBS. All cells were seeded in a total volume of 50 μL, and placed in a 37° C. humidified 5% CO2 cell culture incubator overnight. […] Cell viability was assessed using the CellTiter-Glo Luminescent Cell Viability Assay (Promega) according to the manufacturer's directions. Briefly, plates were removed from the incubator and placed on the bench at room temperature for 30 minutes. Plates were not stacked. Following the 30 minute incubation period at room temperature, 100 μL of CellTiter-Glo reagent were added to each well on the plate and mixed for two minutes, followed by a further ten minutes incubation at room temperature. Luminescence was then recorded using a PerkinElmer Microbeta scintillation and luminescence counter (TriLux). At the same time as drug exposure, a CellTiter-Glo assay was carried out on one plate of each cell line to obtain 0 hr counts for the assay. Following a 72 hour exposure to drugs, a CellTiter-Glo assay was performed on all remaining plates.

MDA-MB-231 cell line = experiment: In vitro cytotoxicity, CellTiter-Glo cell viability, MDA-MB-231; type: cell-based; conditions: Homo sapiens, 72 hours of exposure
Experimental: as §2

NCI-H460 cell line = experiment: In vitro cytotoxicity, CellTiter-Glo cell viability, NCI-H460; type: cell-based; conditions: Homo sapiens, 72 hours of exposure
Experimental: as §2

[3] = Maximum tolerated dose (MTD) study in athymic mice; conditions: for MTD at 30 day: female, athymic nu/nu, mouse, in vivo, iv, athymic nu/nu mice
Experimental: Mice were observed daily for clinical signs and body weights were recorded on days 1-5, 7, 9, 11, 13, and then biweekly until the end of study. All procedures were conducted in compliance with IACUC requirements. Compound dosing was terminated for any group in which mean weight loss exceeded 20% or >10% of animals died. Moribund animals were euthanized and all animals were euthanized at end of study (day 30).

- microsomal CLint at 1 μM [1]: 410 µL/min/mg
- docetaxel formation after incubation with boiled liver microsomes (boiled liver microsomes): not observed
- stability during incubation with boiled liver microsomes (boiled liver microsomes; 1 μM, up to 30 minutes): fairly stable
SMILES: CO[C@H]1C(=O)[C@]2(C)[C@@H](OC)C[C@H]3OC[C@@]3(OC(C)=O)[C@H]2[C@H](OC(=O)c2ccccc2)[C@]2(O)C[C@H](OC(=O)[C@H](O)[C@@H](NC(=O)OC(C)(C)C)c3ccccc3)C(C)=C1C2(C)C [Cabazitaxel]
- extensively metabolized in the liver [2]: > 95%

SMILES: CC(=O)O[C@@]12CO[C@@H]1C[C@H](O)[C@@]1(C)C(=O)[C@H](O)C3=C(C)[C@@H](OC(=O)[C@H](O)[C@@H](NC(=O)OC(C)(C)C)c4ccccc4)C[C@@](O)([C@@H](OC(=O)c4ccccc4)[C@H]21)C3(C)C [Docetaxel, reference compound]
- IC50 (A549 cell line): 1.82 nM
- IC50 (MDA-MB-231 cell line): 35.2 nM
- IC50 (NCI-H460 cell line): 3.52 nM

SMILES: [2H]C([2H])([2H])C(OC(=O)N[C@@H](c1ccccc1)[C@@H](O)C(=O)O[C@H]1C[C@@]2(O)[C@@H](OC(=O)c3ccccc3)C3C(C)(C(=O)[C@H](O)C(=C1C)C2(C)C)[C@@H](O)CC1OC[C@]13OC(C)=O)(C([2H])([2H])[2H])C([2H])([2H])[2H] (stereo partly drawn) [d9-Docetaxel]
- IC50 (A549 cell line): 1.6 nM
- IC50 (MDA-MB-231 cell line): 25.2 nM
- IC50 (NCI-H460 cell line): 2.68 nM
- Treatment-Related Deaths ([3]; Group 1, 10 mg/kg iv, qwk x 3, N 5): 0
- BW Nadir ([3]; Group 2, 20 mg/kg iv, qwk x 3): −5.6%
- Treatment-Related Deaths ([3]; Group 2, 20 mg/kg iv, qwk x 3, N 5): 0
- BW Nadir ([3]; Group 3, 40 mg/kg iv, qwk x 3): −21.9%
- Treatment-Related Deaths ([3]; Group 3, 40 mg/kg iv, qwk x 3, N 5): 0
- BW Nadir ([3]; Group 4, 7.5 mg/kg iv, qwk x 3): −10.6%
- Treatment-Related Deaths ([3]; Group 4, 7.5 mg/kg iv, qwk x 3 in Table 2, N 5): 0
- BW Nadir ([3]; Group 5, 15 mg/kg iv, qwk x 3): −12.3%
- Treatment-Related Deaths ([3]; Group 5, 15 mg/kg iv, qwk x 3 in Table 2, N 5): 0
- BW Nadir ([3]; Group 6, 30 mg/kg iv, qwk x 3): −29.6%
- Mean Day of Death ([3]; Group 6, 30 mg/kg iv, qwk x 3): 11.5
- Treatment-Related Deaths ([3]; Group 6, 30 mg/kg iv, qwk x 3 in Table 2, N 5): 2
- MTD at 30 day ([3]; q3d×3, iv): ~15 mg/kg
- MTD at 30 day ([3]; qwk×3, iv): ~30 mg/kg
